What was measured:
[1] = biological target: T1, CarE CCE001a (Helicoverpa armigera, UniProt D9IV61); experiment: esterase activity, absorbance at […] nm; type: cell-based; details: 37 °C; recombinant protein from P. pastoris expression, purification not described
T1 construct: no purification described
T1 sequence (D9IV61 17-555): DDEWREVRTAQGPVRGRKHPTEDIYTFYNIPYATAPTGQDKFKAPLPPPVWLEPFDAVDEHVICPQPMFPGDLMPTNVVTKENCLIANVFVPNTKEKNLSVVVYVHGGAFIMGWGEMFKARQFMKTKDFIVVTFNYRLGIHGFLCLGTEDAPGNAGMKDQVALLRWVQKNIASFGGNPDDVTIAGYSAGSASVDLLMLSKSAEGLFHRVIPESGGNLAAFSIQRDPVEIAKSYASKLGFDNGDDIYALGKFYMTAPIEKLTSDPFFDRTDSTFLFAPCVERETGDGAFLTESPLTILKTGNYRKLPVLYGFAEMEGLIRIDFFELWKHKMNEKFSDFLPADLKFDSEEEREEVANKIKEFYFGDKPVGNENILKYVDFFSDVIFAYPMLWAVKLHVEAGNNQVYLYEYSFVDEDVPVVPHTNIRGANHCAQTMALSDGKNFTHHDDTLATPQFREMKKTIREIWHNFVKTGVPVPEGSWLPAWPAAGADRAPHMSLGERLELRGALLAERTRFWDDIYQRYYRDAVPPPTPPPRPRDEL

[2] = biological target: T1, CarE CCE001a; experiment: free gossypol depletion by HPLC; products by UPLC-QTOF/MS; type: cell-based; details: PBS, NADPH-Na4 added, 37 °C, 1.5 h, dark; recombinant protein from P. pastoris expression, purification not described

`CC(=O)Oc1cccc2ccccc12` [alpha-naphthyl acetate] was tested, and the “esterase activity, absorbance at 450 nm” value [1] was “We also evaluated the enzyme activity of the recombinant CCE001a protein with the model substrate”.

In the case of `Cc1cc2c(C(C)C)c(O)c(O)c(C=O)c2c(O)c1-c1c(C)cc2c(C(C)C)c(O)c(O)c(C=O)c2c1O` [Gossypol], the “free gossypol depletion by HPLC; products by UPLC-QTOF/MS” value [2] is reported as “Under the influence of recombinant CarE, TG and FG levels decreased rapidly in the experimental group”.

Reference: article PMC9788223, “Biodegradation of Free Gossypol by Helicoverpa armigera Carboxylesterase Expressed in Pichia pastoris” (Toxins, 2022)
